Measurements published in PMC4897788, “Design, biological evaluation and 3D QSAR studies of novel dioxin-containing pyrazoline derivatives with thiourea skeleton as selective HER-2 inhibitors” (Scientific Reports, 2016).

What was measured:
[1] = molecular target: HER-2 protein (truncated) (Homo sapiens, UniProt P04626); assay: BLI assay (bio-layer interferometry); type: binding; details: labeled compound, calculated by the Octet Red96 system
Description: Bio-layer interferometry (BLI). Binding of compounds (labeled; 0.01, 0.05, 0.1, 0.5 μM) to the HER-2 protein (truncated) was measured and analyzed on an Octet Red96 instrument (ForteBio) at room temperature. The buffer-equilibrated streptavidin biosensors were loaded with 100 μg/mL protein. A duplicate set of sensors was incubated in the buffer without protein for a background binding control. The assay was performed in black 96-well plates (Thermo Fisher Scientific) with the total working volume of 0.21 mL per well. The signal was analyzed using a double reference subtraction protocol to subtract the non-specific binding, background, and signal drift caused by sensor variability. The binding event was quantified by the shift of interference pattern of the light. The result was shown in Fig. 7 and the KD was calculated by the Octet Red96 instrument.

Caspase3 = assay: Western blot Caspase3 in MDA-MB-453; type: cell-based, human; details: increasing C20 levels
Description: (§1) After incubation with compound, cells were harvested and washed with PBS, then lysed in lysis buffer (30 mm Tris, pH 7.5, 150 mm NaCl, 1 mm phenylmethylsulfonyl fluoride, 1 mm Na3VO4, 1% Nonidet P-40, 10% glycerol, and phosphatase and protease inhibitors). After centrifugation at 12,000 g for 5 min, the supernatant was collected as total protein. The concentration of the protein was determined by a BCATM protein assay kit (Pierce, Rockford, IL, USA). The protein samples were separated by 10% SDS–PAGE and subsequently electrotransferred onto a polyvinylidene difluoride membrane (Millipore, Bedford, MA, USA). The membrane was blocked with 5% non-fat milk for 2 h at room temperature. The blocked membrane was probed with the indicated primary antibodies overnight at 4 °C, and then incubated with a horse radish peroxidase (HRP)-coupled secondary antibody.

[2] = Cytotoxicity test (MTT), NIH-3T3; type: cell-based; details: mouse, NIH-3T3 mouse embryonic fibroblast cells, NIH3T3
Description: The cytotoxic activity in vitro was measured against mouse fibroblast NIH-3T3 cell using the MTT assay. Cells were cultured in a 96-well plate at a density of 5 × 10^5 cells and different concentrations of compounds were respectively added to each well. The incubation was permitted at 37 °C, 5% CO2 atmosphere for 24 h before the cytotoxicity assessments. 20 μL MTT reagent (4 mg/mL) was added per well 4 h before the end of the incubation. Four hours later, the plate was centrifuged at 1200 rcf for 5 min and the supernatants were removed, each well was added with 200 μL DMSO. The absorbance was measured at a wavelength of 490 nm (OD 490 nm) on an ELISA microplate reader. Three replicate wells were used for each concentration and each assay was measured three times, after which the average of IC50 was calculated. The cytotoxicity of each compound was expressed as the concentration of compound that reduced cell viability to 50% (IC50).

MDA-MB-453 cell line = assay: Flow cytometry, Annexin V-FITC/PI apoptosis; type: cell-based, human; details: 0.05, 0.1 and 0.2 μM, 24 h
Description: MDA-MB-453 cell line was seeded per well in 24-well plates and incubated overnight. Then they were treated with compound C20 at three different concentrations (0.05 μM, 0.1 μM and 0.2 μM, separately). DMSO was chosen as the negative control with a regular dosage of 0.2%. After 24 h, cells were harvested for the apoptosis detection. In brief, collected cells were washed once with PBS and subsequently washed once with binding buffer, and then stained with Annexin V-FITC and propidium iodide (PI) in the binding buffer for 20 min at room temperature in the dark. Apoptotic cells were quantified using a FACScan cytofluorometer (PT. Madagasi Brosa Inc. JI. Batang Hari NO. 73, Propinsi Sumatera Utara, Indonesia) plotting at least 10,000 events per sample. To quantify the data, the frequencies in all quadrants were analyzed using flowjo software. We regarded cells in the lower right quadrant (Annexin V positive/PI negative) as early apoptotic cells, and cells in upper right quadrant (Annexin V positive/PI positive) as late apoptotic cells and necrotic cells.

[3] = tested on: MCF-7 human breast cancer cell line; assay: Anti-proliferation assay (MTT), MCF-7; type: cell-based; details: MCF7, 24 h
Description: MCF-7 human breast cancer cells was cultured in DMEM/10% fetal bovine serum, in 5% CO2 water saturated atmosphere at 37 °C. MDA-MB-453 human breast cancer cells was cultured in L-15 medium in 100% air at 37 °C. Cell suspensions (10000/mL) were prepared and 100 μL/well dispensed into 96-well plates (Costar) giving 1000 cells/well. The plates were returned to the incubator for 24 h to allow the cells to reattach. These compounds were initially prepared at 20 mM in DMSO. Aliquots (200 μL) were diluted into 20 mL culture medium giving 200 μM, and 10 serial dilutions of 3× prepared. Aliquots (100 μL) of each dilution were added to the wells, giving doses ranging from 100 μM to 0.005 μM. After a further incubated at 37 °C for 24 h in a humidified atmosphere with 5% CO2, the cell viability was assessed by the conventional 3-(4,5-dimethylthiazol-2-yl)-2,5-diphenyltetrazolium bromide (MTT) reduction assay and carried out strictly according to the manufacturer instructions (Sigma). The absorbance at 590 nm was recorded using LX300 Epson Diagnostic micro-plate reader. Then GI50 was calculated using SPSS 13.0 software.

EGFR = EGFR (Homo sapiens, UniProt P00533); assay: EGFR autophosphorylation kinase assay (DELFIA/time-resolved fluorometry)
Sequence of EGFR (P00533 669-1210): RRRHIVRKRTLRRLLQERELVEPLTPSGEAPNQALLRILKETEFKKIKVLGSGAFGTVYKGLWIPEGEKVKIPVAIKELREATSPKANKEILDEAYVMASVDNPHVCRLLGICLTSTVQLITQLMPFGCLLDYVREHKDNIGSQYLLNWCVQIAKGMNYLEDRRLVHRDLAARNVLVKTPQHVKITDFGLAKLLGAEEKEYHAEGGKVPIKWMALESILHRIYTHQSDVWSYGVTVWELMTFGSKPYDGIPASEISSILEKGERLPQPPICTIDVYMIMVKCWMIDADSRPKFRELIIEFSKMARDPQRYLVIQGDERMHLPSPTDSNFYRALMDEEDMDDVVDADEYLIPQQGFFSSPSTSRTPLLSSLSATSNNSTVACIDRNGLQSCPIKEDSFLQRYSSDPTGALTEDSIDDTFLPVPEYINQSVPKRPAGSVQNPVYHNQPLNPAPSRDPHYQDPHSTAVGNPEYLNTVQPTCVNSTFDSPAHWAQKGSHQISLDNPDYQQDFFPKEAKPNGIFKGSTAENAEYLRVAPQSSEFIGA
Description: A sequence that encodes (His)6 was located at the 5′ upstream to the HER-2 and EGFR sequences. Sf-9 cells were infected for 3 days for protein expression. Sf-9 cell pellets were solubilized at 0 °C in a buffer at pH 7.4 containing 50 mM HEPES, 10 mM NaCl, 1% Triton, 10 μM ammonium molybdate, 100 μM sodium vanadate, 10 μg/mL aprotinin, 10 μg/mL leupeptin, 10 μg/mL pepstatin, and 16 μg/mL benzamidine, HCl for 20 min followed by 20 min centrifugation. Crude extract supernatant was passed through an equilibrated Ni–NTA superflow packed column and washed with 10 mM and then 100 mM imidazole to remove nonspecifically bound material. Histidine-tagged proteins were eluted with 250 and 500 mM imidazole and dialyzed against 50 mM NaCl, 20 mM HEPES, 10% glycerol and 1 μg/mL each of aprotinin, leupeptin, and pepstatin for 2 h. The entire purification procedure was performed at 4 °C or on ice.
Both EGFR and HER-2 kinase assays were set up to assess the level of autophosphorylation based on DELFIA/Time-Resolved Fluorometry. […] Then, 10 μL of 5× buffer (containing 20 mM HEPES, 2 mM MnCl2, 100 μM Na3VO4, and 1 mM DTT) and 20 μL of 0.1 mM ATP-50 mM MgCl2 was added for 1 h. Positive and negative controls were included in each plate by incubation of enzyme with or without ATP-MgCl2. At the end of incubation, liquid was aspirated and plates were washed three times with wash buffer. A 75 μL (400 ng) sample of europium-labeled anti-phosphotyrosine antibody was added to each well for another 1 h of incubation. […] The IC50 was obtained from curves of percentage inhibition with eight concentrations of compound. As the contaminants in the enzyme preparation are fairly low, the majority of the signal detected by the anti-phosphotyrosine antibody is from EGFR or HER-2. The experiment was performed for three independent times and in triplicate each time.

human erythrocytes = assay: Hemolysis test; type: cell-based; details: lytic concentration 30%
Description: Hemolytic activity was assayed using fresh capillary human blood. Erythrocytes were collected by centrifuging the blood three times in chilled phosphate buffered saline (PBS at 4 °C) at 1000 × g for 10 min. The final pellet was resuspended in PBS to give a 2% w/v solution. Using a microtitre plate, 100 μL of the erythrocyte solution was added to dextran, PLL, stearyl-PLL or stearyl-PLL+ LDL (1–1000/μg/mL) in a volume of […]. Samples were then incubated for 3 h and the microtitre plate was centrifuged then at 1000 × g for 10 min and the supernatants (100 μL) transferred into a new microtitre plate. Hemoglobin release was determined spectrophotometrically using a microtitre plate reader (absorbance at 550 nm). Results were expressed as the amount of released hemoglobin induced by the compounds as a percentage of the total. Hemolysis test was tested according to the guide of biological evaluation of medical device (SFDA, China).

p-EGFR = assay: Western blot p-EGFR in MDA-MB-453; type: cell-based, human; details: increasing C20 levels
Description: as §1

Sequence of HER-2 protein (truncated) (P04626 676-1245): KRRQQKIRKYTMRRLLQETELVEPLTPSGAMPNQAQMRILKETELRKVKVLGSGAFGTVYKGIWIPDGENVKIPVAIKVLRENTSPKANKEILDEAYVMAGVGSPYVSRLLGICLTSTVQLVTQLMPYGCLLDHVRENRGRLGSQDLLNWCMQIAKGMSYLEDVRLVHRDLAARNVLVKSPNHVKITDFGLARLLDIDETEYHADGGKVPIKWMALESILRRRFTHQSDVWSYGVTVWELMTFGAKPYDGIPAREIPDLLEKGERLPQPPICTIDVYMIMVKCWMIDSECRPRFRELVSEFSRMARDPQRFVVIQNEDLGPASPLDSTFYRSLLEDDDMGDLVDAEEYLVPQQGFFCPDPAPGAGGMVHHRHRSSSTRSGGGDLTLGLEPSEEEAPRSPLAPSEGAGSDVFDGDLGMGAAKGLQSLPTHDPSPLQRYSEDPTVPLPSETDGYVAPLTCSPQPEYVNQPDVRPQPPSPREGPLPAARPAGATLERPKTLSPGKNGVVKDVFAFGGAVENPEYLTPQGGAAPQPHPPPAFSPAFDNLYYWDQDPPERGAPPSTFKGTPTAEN

COc1ccc(C2CC(c3ccc4c(c3)OCCO4)=NN2C(N)=S)cc1OC (centres unmarked) [Compound C20, 3-(2,3-dihydrobenzo[b][1,4]dioxin-6-yl)-5-(3,4-dimethoxyphenyl)-4,5-dihydro-1H-pyrazole-1-carbothioamide]
Kd [1]: 0.187 µM
Caspase3 levels (Caspase3): corresponding increase
GI50 at 24 h [2]: 274 ± 3.61 µM
induction of apoptosis (MDA-MB-453 cell line): induce apoptosis of activated MDA-MB-453 cell line in a dose-dependent manner
GI50 [3]: 11.9 ± 1.06 µM
IC50 (EGFR): 28.6 ± 2.52 µM
Hemolysis LC30 (human erythrocytes): >10000 µg/mL
p-EGFR levels (p-EGFR): unconspicuous
